Laboratory results reported in US7851493B2, “Phenyl-1,2,4-oxadiazolone derivatives with phenyl group, processes for their preparation and their use as pharmaceuticals” (Sanofi-Aventis, priority 2005, dated 2010).
pEC50: −log10 of the molar value. Read-outs that look alike come from different tables or passages of the source.

Assays:
[1] = rhesus and cynomolgus monkeys; cited from earlier work
[2] = two weeks clinical trials in healthy volunteers; cited from earlier work
[3] = diabetic animal model; cited from earlier work
[4] = molecular target: T1, human PPARdelta (Homo sapiens, UniProt Q03181); assay: Cellular PPARdelta assay (human GAL4 luciferase reporter, stably transfected HEK cell line); format: cell-based
T1 construct: amino acids S139-Y441; expressed in transfected cells; plasmid pcDNA3
T1 sequence (Q03181 139-441): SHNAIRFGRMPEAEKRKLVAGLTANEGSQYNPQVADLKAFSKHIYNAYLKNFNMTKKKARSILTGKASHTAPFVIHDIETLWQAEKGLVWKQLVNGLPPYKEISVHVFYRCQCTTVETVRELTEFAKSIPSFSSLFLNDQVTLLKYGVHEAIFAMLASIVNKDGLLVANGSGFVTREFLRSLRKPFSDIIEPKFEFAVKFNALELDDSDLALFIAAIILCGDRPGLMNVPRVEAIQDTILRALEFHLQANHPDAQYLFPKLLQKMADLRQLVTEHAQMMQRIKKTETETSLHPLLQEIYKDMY
Experimental: Determination of EC50 Values of PPAR Agonists in the Cellular PPARdelta Assay
(§1) The potency of substances which bind to human PPARdelta and activate it in an agonistic manner is analyzed using a stably transfected HEK cell line (HEK=human embryo kidney) which is referred to here as PPARdelta reporter cell line. In analogy to the assay described for PPARalpha, the PPARdelta reporter cell line also contains two genetic elements, a luciferase reporter element (pdeltaM-GAL4-Luc-Zeo) and a PPARdelta fusion protein (GR-GAL4-humanPPARdelta-LBD) which mediates expression of the luciferase reporter element depending on a PPARdelta ligand. The stably and constitutively expressed fusion protein GR-GAL4-humanPPARdelta-LBD binds in the cell nucleus of the PPARdelta reporter cell line via the GAL4 protein portion to the GAL4 DNA binding motifs 5′-upstream of the luciferase reporter element which is stably integrated in the genome of the cell line. There is only little expression of the luciferase reporter gene in the absence of a PPARdelta ligand if fatty acid-depleted fetal calf serum (cs-FCS) is used in the assay. PPARdelta ligands bind and activate the PPARdelta fusion protein and thereby stimulate expression of the luciferase reporter gene. The luciferase which is formed can be detected by means of chemiluminescence via an appropriate substrate.
Construction of the PPARdelta Reporter Cell Line
The production of the stable PPARdelta reporter cell line is based on a stable HEK-cell clone which was stably transfected with a luciferase reporter element. This step was already described above in the section “construction of the PPARalpha reporter cell line”. In a second step, the PPARdelta fusion protein (GR-GAL4-humanPPARdelta-LBD was stably introduced into this cell clone. For this purpose, the cDNA coding for the N-terminal 76 amino acids of the glucocorticoid receptor (Accession #P04150) was linked to the cDNA section coding for amino acids 1-147 of the yeast transcription factor GAL4 (Accession #P04386). The cDNA of the ligand-binding domain of the human PPARdelta receptor (amino acids S139-Y441; Accession #L07592) was cloned in at the 3′-end of this GR-GAL4 construct. The fusion construct prepared in this way (GR-GAL4-humanPPARdelta-LBD) was recloned into the plasmid pcDNA3 (Invitrogen) in order to enable constitutive expression by the cytomegalovirus promoter. This plasmid was linearized with a restriction endonuclease and stably transfected into the previously described cell clone containing the luciferase reporter element. The resulting PPARdelta reporter cell line which contains a luciferase reporter element and constitutively expresses the PPARdelta fusion protein (GR-GAL4-human PPARdelta-LBD) was isolated by selection with zeocin (0.5 mg/ml) and G418 (0.5 mg/ml).
Assay Procedure and Evaluation
The activity of PPARdelta agonists is determined in a 3-day assay in exact analogy to the procedure already described for the PPARalpha reporter cell line except that the PPARdelta reporter cell line and a specific PPARdelta agonist was used as a standard to control test efficacy.

[5] = molecular target: T2, human PPARalpha (Homo sapiens, UniProt Q07869); assay: Cellular PPARalpha assay (human GAL4 luciferase reporter, stably transfected HEK cell line); format: cell-based
T2 construct: amino acids S167-Y468; expressed in transfected cells; plasmid pcDNA3
T2 sequence (Q07869 167-468): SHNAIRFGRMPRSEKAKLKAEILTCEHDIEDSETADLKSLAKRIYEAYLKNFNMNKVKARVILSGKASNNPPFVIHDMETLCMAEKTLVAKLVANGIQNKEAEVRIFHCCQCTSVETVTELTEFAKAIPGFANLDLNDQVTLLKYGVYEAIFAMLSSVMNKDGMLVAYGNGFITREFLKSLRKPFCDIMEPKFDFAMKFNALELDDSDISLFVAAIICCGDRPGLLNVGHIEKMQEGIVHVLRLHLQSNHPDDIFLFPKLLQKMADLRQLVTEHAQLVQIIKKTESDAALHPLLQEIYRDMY
Experimental: Determination of EC50 Values of PPAR Agonists in the Cellular PPARalpha Assay
as §1, with “PPARalpha” for “PPARdelta”, “It” for “In analogy to the assay described for PPARalpha, the PPARdelta reporter cell line also”, “(GR-GAL4-humanPPARalpha-LBD)” for “(GR-GAL4-humanPPARdelta-LBD)”, “GR-GAL4-humanPPARalpha-LBD” for “GR-GAL4-humanPPARdelta-LBD”, “weak” for “little”, “stimulate the” for “stimulate”
Construction of the PPARalpha Reporter Cell Line
The PPARalpha reporter cell line was prepared in two stages. Firstly, the luciferase reporter element was constructed and stably transfected into HEK cells. For this purpose, five binding sites of the yeast transcription factor GAL4 (Accession #AF264724) were cloned in 5′-upstream of a 68 bp-long minimal MMTV promoter (Accession #V01175). The minimal MMTV promoter section contains a […] and a TATA element in order to enable efficient transcription by RNA polymerase II. The cloning and sequencing of the GAL4-MMTV construct took place in analogy to the description of Sambrook J. et al. (Molecular cloning, Cold Spring Harbor Laboratory Press, 1989). Then the complete Photinus pyralis gene (Accession #15077) was cloned in 3′-downstream of the GAL4-MMTV element. After sequencing, the luciferase reporter element consisting of five GAL4 binding sites, MMTV promoter and luciferase gene was recloned into a plasmid which confers zeocin resistance in order to obtain the plasmid pdeltaM-GAL4-Luc-Zeo. This vector was transfected into HEK cells in accordance with the statements in Ausubel, F. M. et al. (Current protocols in molecular biology, Vol. 1-3, John Wiley & Sons, Inc., 1995).
In a second step, the PPARalpha fusion protein (GR-GAL4-humanPPARalpha-LBD was introduced into the stable cell clone described. For this purpose, initially the cDNA coding for the N-terminal 76 amino acids of the glucocorticoid receptor (Accession #P04150) was linked to the cDNA section coding for amino acids 1-147 of the yeast transcription factor GAL4 (Accession #P04386). The cDNA of the ligand-binding domain of the human PPARalpha receptor (amino acids S167-Y468; Accession #S74349) was cloned in at the 3′-end of this GR-GAL4 construct. The fusion construct prepared in this way (GR-GAL4-humanPPARalpha-LBD) was recloned into the plasmid pcDNA3 (Invitrogen) in order to enable constitutive expression therein by the cytomegalovirus promoter. This plasmid was linearized with a restriction endonuclease and stably transfected into the previously described cell clone containing the luciferase reporter element. The finished PPARalpha reporter cell line which contains a luciferase reporter element and constitutively expresses the PPARalpha fusion protein (GR-GAL4-human PPARalpha-LBD) was isolated by selection with zeocin (0.5 mg/ml) and G418 (0.5 mg/ml).
The activity of PPARalpha agonists is determined in a 3-day assay, which is described below: […]

pEC50 [4] | pEC50 [5] | Structure (SMILES) | plasma lipids [1] | plasma lipids [2] | plasma cholesterol [3]
 |  | CCCc1c(OCCCSc2nnc(SCC(=O)O)s2)ccc(C(C)=O)c1O [YM-16638] | significantly lowers | acts in a similar manner | 
 |  | CCCc1c(OCCCOc2ccc(OCC(=O)O)cc2)ccc(C(C)=O)c1O [Example L-165041] |  |  | raises
7.25 | 6.14 | COc1cc(OCc2sc(-c3ccc(C(F)(F)F)cc3)nc2CN2CCC(C(F)(F)F)C2)ccc1-c1noc(=O)[nH]1 (racemic) [Example 9, 3-{2-Methoxy-4-[2-(4-trifluoromethyl-phenyl)-4-(3-trifluoromethyl-pyrrolidin-1-ylmethyl)thiazol-5-ylmethoxy]-phenyl}-4H-[1,2,4]oxadiazol-5-one] |  |  | 
6.45 | 5.66 | Cc1nc(COCc2ccccc2)oc1COc1ccc(-c2noc(=O)[nH]2)c(Cl)c1 [Example 56, 3-[4-(2-Benzyloxymethyl-4-methyl-oxazol-5-ylmethoxy)-2-chloro-phenyl]-4H-[1,2,4]oxadiazol-5-one] |  |  | 
7.92 | 6.40 | O=c1[nH]c(-c2ccc(OCc3sc(-c4ccc(C(F)(F)F)cc4)nc3COCCC3CCCCC3)cc2Cl)no1 [Example 83, 3-{2-Chloro-4-[4-(2-cyclohexyl-ethoxymethyl)-2-(4-trifluoromethyl-phenyl)-thiazol-5-ylmethoxy]-phenyl}-4H-[1,2,4]oxadiazol-5-one] |  |  | 
